Measured values as given in patent publication US5789186A, “Marker for cerebral apoplexy” (Oriental Yeast Co., Ltd., priority 1995, dated 1998).
Read-outs that look alike come from different tables or passages of the source.

Columns and labels:
Assay type in all cases: biochemical
PGAM-B = PGAM-B (Homo sapiens, UniProt P18669); assay: Effect of potassium tetrathionate on PGAM-B standard, automatic assay method (NADH decrease rate assay); conditions: for activity at 1900 µM / activity at 3800 µM / activity at 7600 µM: 5 min, PGAM-B standard (pooled serum base), 5 min reaction, read-out: PGAM-B activity relative to 0 mM potassium tetrathionate (=100); for activity at 1900 µM: final concentration 1.9 mM; for activity at 3800 µM: final concentration 3.8 mM; for activity at 7600 µM: final concentration 7.6 mM
Excerpt: (§1) Namely, 3-phosphoglycerate (Glycerate-3-P) is converted into 2-phosphoglycerate (Glycerate-2-P) by PGAM-B in the presence of 2,3-bisphosphoglycerate (Glycerate-2,3-P2) and the resulting product is converted into PEP and H2 O by enolase. Then, PEP is converted into pyruvate and ATP by pyruvate kinase (PK) in the presence of ADP, and lactate dehydrogenase (LDH) is acted on pyruvate thus obtained in the presence of NADH to conduct the rate assay of the decrease of NADH.
(§2) Effect of potassium tetrathionate on PGAM-B and PGAM-M was examined by an automatic assay method.
(§3) Standard preparations of the B-type and M-type isozymes (pooled serum base) were used as samples. These were diluted 1/1 to 1/8 with physiological saline to serve as samples. To the thus prepared samples were added potassium tetrathionate of various concentrations. After the reaction was carried out for 5 minutes, the quantity of the B-type and M-type PGAMs were determined by the automatic assay method.
(§4) The quantity of PGAM-B and PGAM-M were respectively determined using the reagent of Example 2 by the automatic assay method, and the results shown in Table 2 below were obtained.
(§5) Potassium tetrathionate (molecular weight of 302.4) was added to and dissolved in the PGAM activity assay reagent (R-1) so as to give a concentration of 2.25 mM (final concentration of 1.9 mM) (15 mg of potassium tetrathionate was dissolved in 22 ml of the R-1 reagent) and the M-type isozyme was inactivated to prepare a B-type PGAM activity assay reagent.
(§6) Five μl of a serum sample was combined with 250 μl of the solution of Reagent 1 (R-1) in which potassium tetrathionate was dissolved, and the mixture was allowed to stand for 5 minutes. During this period, the M-type (and MB-type) PGAM was inactivated and inhibited, and then the B-type PGAM activity was determined using Reagent 2 (R-2).
(§7) The reaction was initiated (substrate start) by adding 41 μl of Reagent 2 (R-2) because it contained glycerate-3-phosphate (substrate). The assay was started about 1.5 minutes after the addition of Reagent 2.
(§8) The assay was carried out using Hitachi 7150 model automatic analyzer with setting the assay code to RATE-A: 32-39 and the measuring temperature to 37° C. The decrease in absorbance A 340 nm associated with the decrease of NADH was measured for about 1.5 minutes. It should be noted that the assay was carried out at the secondary wavelength of 405 nm.
(§9) One unit of the enzyme (1 U: 1 unit) was defined as the amount of the enzyme that reduces 1 μmol of NADH for 1 minute at 37° C. Actual measured values were calculated by multiplying the rate assay value by a calibrating factor (K FACTOR).

PGAM-M = PGAM-M (Homo sapiens, UniProt P15259); assay: Effect of potassium tetrathionate on PGAM-M standard, automatic assay method (NADH decrease rate assay)
Excerpt: as §1, §2, §3, §4, §5, §6, §7, §8, §9

M-type isozyme (PGAM-MM) = assay: Inhibition test using purified PGAM isozymes, M-type; conditions: treatment with tetrathionic acid as PGAM inhibitor
Excerpt: (§10) The assay method according to the present invention comprises treating a blood sample such as serum with a PGAM inhibitor to inactivate a specific isozyme, and then determining residual PGAM activity. For example, when tetrathionic acid is used as the PGAM inhibitor, almost 100% of M-type isozyme activity and about 50% of MB-type isozyme activity are lost, while B-type isozyme activity is hardly lost. Therefore, the B-type isozyme can be separately quantified by adding tetrathionic acid to serum to inactivate the M-type isozyme and measuring residual PGAM activity.
(§11) Incidently, according to the inhibition test using purified PGAM isozymes, only 50% of MB-type isozyme activity is lost by the treatment with tetrathionic acid, and 50% of the activity remains. However, since most of PGAM activities in normal serum and cerebral tissues are attributed to the B-type isozyme, residual activity of the MB-type isozyme can be practically disregarded in the case of diagnosis of cerebral apoplexy in a biological sample.

B-type isozyme (PGAM-BB) = assay: Inhibition test using purified PGAM isozymes, B-type; conditions: treatment with tetrathionic acid as PGAM inhibitor
Excerpt: as §10, §11

[1] = dilution rate 1/1 (control 183 U/L)
[2] = dilution rate 1/2 (control 91 U/L)
[3] = dilution rate 1/4 (control 46 U/L)
[4] = dilution rate 1/8 (control 22 U/L)

PGAM-B, sequence (P18669 whole entry): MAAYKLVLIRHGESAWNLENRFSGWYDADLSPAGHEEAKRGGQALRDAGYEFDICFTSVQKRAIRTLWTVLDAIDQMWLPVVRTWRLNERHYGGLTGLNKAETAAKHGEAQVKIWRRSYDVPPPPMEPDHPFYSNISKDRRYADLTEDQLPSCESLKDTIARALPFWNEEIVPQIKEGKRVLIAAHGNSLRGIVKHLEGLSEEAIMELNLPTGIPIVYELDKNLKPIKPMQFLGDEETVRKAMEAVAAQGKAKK
PGAM-M, sequence (P15259 whole entry): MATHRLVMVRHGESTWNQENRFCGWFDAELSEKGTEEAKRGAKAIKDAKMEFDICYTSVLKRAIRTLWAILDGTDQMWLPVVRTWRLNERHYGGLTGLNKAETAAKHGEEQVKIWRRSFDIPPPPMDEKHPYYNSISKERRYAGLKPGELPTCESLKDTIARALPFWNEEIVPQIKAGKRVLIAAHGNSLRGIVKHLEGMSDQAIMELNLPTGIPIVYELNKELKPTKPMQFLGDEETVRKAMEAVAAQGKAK

Row | SMILES | activity at 1900 µM (PGAM-B; [1]) [%] | activity at 3800 µM (PGAM-B; [1]) [%] | activity at 7600 µM (PGAM-B; [1]) [%] | activity at 1900 µM (PGAM-B; [2]) [%] | activity at 3800 µM (PGAM-B; [2]) [%] | activity at 7600 µM (PGAM-B; [2]) [%] | activity at 1900 µM (PGAM-B; [3]) [%] | activity at 3800 µM (PGAM-B; [3]) [%] | activity at 7600 µM (PGAM-B; [3]) [%] | activity at 1900 µM (PGAM-B; [4]) [%] | activity at 3800 µM (PGAM-B; [4]) [%] | activity at 7600 µM (PGAM-B; [4]) [%] | Effect on the B-type isozyme (in words) (PGAM-B; summary of Table 2) | activity at 1900 µM (PGAM-M; 5 min, PGAM-M standard (pooled serum base), dilution rate 1/8 (control 332 U/L), final concentration 1.9 mM, 5 min reaction, read-out: PGAM-M activity relative to 0 mM potassium tetrathionate (=100)) [%] | activity at 3800 µM (PGAM-M; 5 min, PGAM-M standard (pooled serum base), dilution rate 1/8 (control 332 U/L), final concentration 3.8 mM, 5 min reaction, read-out: PGAM-M activity relative to 0 mM potassium tetrathionate (=100)) [%] | activity at 7600 µM (PGAM-M; 5 min, PGAM-M standard (pooled serum base), dilution rate 1/8 (control 332 U/L), final concentration 7.6 mM, 5 min reaction, read-out: PGAM-M activity relative to 0 mM potassium tetrathionate (=100)) [%] | Effect on the M-type isozyme (in words) (PGAM-M; summary of Table 2) | M-type isozyme activity lost (M-type isozyme (PGAM-MM)) [%] | B-type isozyme activity lost (in words) (B-type isozyme (PGAM-BB))
1 | O=S(=O)([O-])SSS(=O)(=O)[O-].[K+].[K+] [potassium tetrathionate] | 98 | 92 | 81 | 98 | 91 | 80 | 97 | 86 | 59 | 93 | 93 | 75 | no effect was observed | 0 | 0 | 0 | specifically inactivated | – | –
2 | O=S(=O)(O)SSS(=O)(=O)O [tetrathionic acid] | – | – | – | – | – | – | – | – | – | – | – | – | – | – | – | – | – | ~100 | hardly lost
